Results published in patent US20220204575A1, “MODULATING SURVIVAL OF THERAPEUTIC CELLS AND METHODS, CELLS AND NUCLEIC ACIDS RELATED THERETO” (The Regents of the University of California, priority 2019, published 2022).

Legend:
Type in all cases: cell-based
[1] = test system: engineered T cells; experiment: Inducible tBID circuit with varied levels of constitutive BCL-2 expression, T cell survival; conditions: constant antigen-induced tBID expression, varied constitutive BCL-2
Excerpt: The ability of anti-apoptotic BCL-2 to buffer a pro-apoptotic protein was further tested in an inducible tBID circuit (described in more detail below) with varied levels of constitutive BCL-2 expression (schematically depicted in FIG. 5). In this experiment, constant levels of tBID expression were induced by the presence of antigen expressing target cells, BCL-2 expression levels were varied, and the amount of T cell survival at different levels of BCL-2 expression was quantitated (FIG. 6).

[2] = test system: primary human T cells; experiment: Constitutive overexpression of pro-apoptotic BCL-2 family proteins in T cells, FACS at culture day 12
Protocol: The abilities of several pro-apoptotic proteins (e.g., BIM, truncated Bid (tBID), and BAD) to induce T cell apoptosis when synthetically overexpressed from a constitutive promoter were tested. The tested T cells were also engineered to constitutively overexpress anti-apoptotic BCL-2.
Without being bound by theory, these effects were likely due to leaky expression of BIM, the high effectiveness of BIM in inducing apoptosis, or a combination thereof.

[3] = test system: T cells; experiment: Basal T cell death from inducible response element constructs in the absence of synNotch antigen
Excerpt: Differences in the potency of various BCL-2 family members in inducible systems for therapeutic cell population control were also investigated and differences in potency were observed. For example, molecular circuits were designed and tested that included a response element construct including a UAS, inducible by the released transcription factor (TF) domain of a synNotch receptor, driving expression of various different BCL-2 family members (e.g., BIM, tBID, etc.) and a constitutive reporter (mCherry) (see schematic depiction provided in FIG. 19). Upon binding its target antigen, the synNotch receptor releases the TF domain which activates the UAS thereby driving expression of the respective BCL-2 family protein and the mCherry reporter is used to observe the size of the cell population thereafter.

[4] = test system: human primary CD4 T cells; experiment: Anti-Her2 synNotch driving pro-apoptotic BCL-2 family protein X, T cell survival with antigen-expressing target cells; conditions: in the presence of antigen-expressing target cells
Protocol: For example, a circuit was designed, as schematically depicted in FIG. 27, with an anti-Her2 synNotch driving expression of a pro-apoptotic BCL-2 family protein “X”, where X stands for the various pro-apoptotic BCL-2 family members were tested in the depicted circuit. As shown, upon the anti-Her2 scFv portion of the synNotch receptor binding Her2 expressed by a target cell, the transcription factor (TF) portion of the synNotch, containing Gal4-VP64, is released and inducing expression of the pro-apoptotic BCL-2 family protein “X”. The level of induced apoptosis in the presence of cells expressing the target antigen, as compared to control cells not expressing the target antigen, was then assessed.
Results of testing BID, tBID, PUMA, BMF, HRK and BIK as pro-apoptotic BCL-2 family protein “X” in this system are shown in FIG. 28, along with a negative control employing BFP in place of the pro-apoptotic BCL-2 family protein “X”.
Thus, the therapeutic cells encoding the BID circuit were able to survive BID induction.

Substance: BCL-2: anti-apoptotic BCL-2 protein, human UniProt P10415, SEQ ID NO: 105
- T cell survival at different levels of BCL-2 expression [1]: titratably buffers against apoptosis
- T cell survival at different levels of BCL-2 expression ([1]; listed as BCL2): less tBID-induced apoptosis
- buffering against apoptotic effects of tBID and BIM ([2]; constitutive co-expression of BCL-2): at least partially buffer against the apoptotic effects

Substance: BIM: pro-apoptotic BCL-2 family protein, human BIM UniProt O43521, SEQ ID NO: 99
- basal T cell death from leaky expression ([3]; absence of synNotch target antigen, mCherry reporter): sufficient to cause widespread T cell death
- cell death from uninduced inducible construct ([3]; uninduced, in the absence of co-expression with anti-apoptotic BCL-2): leads to significant levels of cell death
- ability to induce T cell apoptosis / drive T cell death ([2]; constitutive expression, with constitutive overexpression of BCL-2, culture day 12): drove significant apoptosis

Substance: BMF: pro-apoptotic BMF protein, human UniProt Q96LC9
- induced apoptosis of T cells [4]: induce apoptosis of human primary CD4 T cells

Substance: HRK: pro-apoptotic HRK protein, human UniProt O00198, SEQ ID NO: 103
- induced apoptosis of T cells [4]: induce apoptosis of human primary CD4 T cells
